Calls of active or inactive are those of the source. The rule behind the calls is not given here.
Tests used:
[1] = pKa value was determined; assay type: physicochemical
[2] = molecular target: Dihydrofolate reductase (Lactobacillus casei) (UniProt P00381); assay: Inhibitory activity tested against dihydrofolate reductase from Lactobacillus casei; conditions: Lacticaseibacillus casei
Mus musculus [3] = organism: Mus musculus; assay: Growth inhibitory activity against L1210 mouse leukemia cells; assay type: functional
Mus musculus [4] = assay: Compound was tested for life span of weight loss in mice at 1 mg/kg/day; assay type: functional
Mus musculus [5] = assay: In vivo life span increase in mice after 240 mg/kg (mg/kg)/day (q3d X 3) starting 24 hr of ip administration on; assay type: functional; conditions: route intraperitoneal
Mus musculus [6] = assay: In vivo life span increase in mice after 60 mg/kg (mg/kg)/day (q3d X 3) starting 24 hr of ip administration on; No activity; assay type: functional, organism-based; parameters: dose 60 mg/kg; conditions: at 60 mg/kg
Mus musculus [7] = organism: Mus musculus; assay: Compound was tested for life span of weight gain; assay type: functional
Mus musculus [8] = assay: Compound was tested for life span of weight loss in mice at 4 mg/kg/day; assay type: functional
Mus musculus [9] = assay: In vivo life span increase in mice after 120 mg/kg (mg/kg)/day (q3d X 3) starting 24 hr of ip administration on; No activity; assay type: functional, organism-based; parameters: dose 120 mg/kg; conditions: at 120 mg/kg
Mus musculus [10] = organism: Mus musculus; assay: Compound was tested for life span loss of mean body weight; assay type: functional
Mus musculus [11] = assay: In vivo life span increase in mice after 30 mg/kg (mg/kg)/day (q3d X 3) starting 24 hr of ip administration on;No activity; assay type: functional, organism-based; parameters: dose 30 mg/kg; conditions: at 30 mg/kg
[12] = molecular target: T1, Dihydrofolate reductase (Mus musculus) (UniProt P00375); assay: Inhibitory tested against Dihydrofolate reductase enzyme from L1210 mouse leukemia cells using [3H]methotrexate as a radioligand; assay type: cell-based
T1 sequence (whole entry): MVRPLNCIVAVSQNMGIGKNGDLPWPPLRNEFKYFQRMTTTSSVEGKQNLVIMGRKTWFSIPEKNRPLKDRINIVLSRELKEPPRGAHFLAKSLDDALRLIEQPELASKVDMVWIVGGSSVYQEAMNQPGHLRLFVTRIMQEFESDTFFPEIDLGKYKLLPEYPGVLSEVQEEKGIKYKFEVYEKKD

Sequence of Dihydrofolate reductase (Lactobacillus casei) (P00381 whole entry): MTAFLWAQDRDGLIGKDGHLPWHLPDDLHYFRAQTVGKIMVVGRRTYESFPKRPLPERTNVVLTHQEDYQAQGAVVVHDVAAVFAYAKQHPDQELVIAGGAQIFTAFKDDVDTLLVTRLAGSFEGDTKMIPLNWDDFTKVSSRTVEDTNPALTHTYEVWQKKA

Work on N[C@@H](CCC(=O)O)C(=O)O [GLUTAMIC ACID] yielded a pKa [1] of 3.2.
Nc1nc(N)c2nc(CNc3ccc(CNC(CO)CCC(=O)O)cc3)cnc2n1 (stereo not given) showed an ID50 [2] of 470 nM, an Activity (Mus musculus [3]) of 1 µM and an ILS at 1 mg/kg/day (Mus musculus [4]) of 27%. The Increase (Mus musculus [5]) was 22%, the Increase (Mus musculus [6]) was “inactive” and the Weight gain (Mus musculus [7]) was 13%. For the same compound, the ILS at 4 mg/kg/day (Mus musculus [8]) was 45%, the Increase (Mus musculus [9]) was “inactive” and the Loss (Mus musculus [10]) was 5%. For the same compound, the Increase (Mus musculus [11]) was “inactive” and the ID50 [12] was 24 nM.
Compound Nc1nc(N)c2nc(CNc3ccc(C(=O)N[C@@H](CCC(=O)O)C(=O)O)cc3)cnc2n1 has an ID50 [2] of 27 nM and an ID50 [12] of 2.2 nM.
With CC(=O)NCC(=O)O [ACETURIC ACID] the pKa [1] was 3.6.

From ChEMBL document CHEMBL1121987 (J Med Chem, 1982)
